For experiment [1], the system named is Human T-cell leukemia virus type I. The experiment can be described thus: Inhibitory activity against human T-lymphotropic virus type 1 (HTLV-1) infected HUT-102 cells at 10 uM. Format: functional. The note with it: Primate T-lymphotropic virus 1, HuT-102.
The species named for another experiment is Homo sapiens. The experiment can be described thus: Inhibitory activity against human T-lymphotropic virus type 1 (HTLV-1) infected HUT-102 cells at 50 uM. Format: functional.

Structures are written as SMILES.

By inhibition is commonly meant the drop in the measured response relative to a control, in per cent. A lower inhibition goes with a weak effect. As for `C(=C\c1ccc2ccccc2n1)/c1ccccc1`, in experiment [1], testing at 10 µM gave an inhibition of 0%.
On the same count and under the same terms, the value for `c1ccc2nc(CCc3ccc4c(c3)OCO4)ccc2c1` was 50%.
Turning to `CC(=O)Cc1ccc2ccccc2n1`, testing at 50 µM in the experiment listed under Homo sapiens gave an inhibition of 0%.
As to `COC(=O)/C=C/c1ccc2cc(C)ccc2n1`, in experiment [1], 10 µM produced 45% inhibition.
The same measure, in the same setting: the value for `COC(=O)/C=C/c1ccc2ccccc2n1` was 4%.
On the same count and under the same terms, the value for `C(#Cc1cnc2ccccc2c1)CCC#Cc1cnc2ccccc2c1` was 82%.
The same measure, in the same setting: with `c1ccc(-c2ccc3ccccc3n2)cc1` [2-PHENYLQUINOLINE] the figure was 0%.
In turn, `[O-][n+]1c(/C=C/c2ccccc2)ccc2ccccc21` showed an inhibition at 10 µM in experiment [1] of 86%.
Regarding `CCCCCCCCCCCC/C=C/c1ccc2ccccc2n1`, in experiment [1], the inhibition at 10 µM stood at 6%.
Still for that read-out and setting: with `OC(c1ccc2ccccc2n1)C1CC1` (centres undefined) the figure was 0%; with `BrC(Br)=Cc1ccc2ccccc2n1`, 0%; with `CC(C)c1ccc2ccccc2n1`, 0%.
On the same count and under the same terms, the value for `OC/C=C/c1ccc2ccccc2n1` was 0%; that for `COc1ccc(C(O)Cc2ccc3ccccc3n2)cc1OC` (centres undefined) was 0%; that for `COc1ccc(/C=C/c2ccc3ccccc3n2)cc1OC` was 0%.
For `C[Si](C)(C)C#Cc1ccc2ccccc2n1`, the inhibition at 10 µM in experiment [1] came to 87%.
Same read-out and setting: the value for `CCC/C=C/c1ccc2ccccc2n1` was 46%; that for `CC/C=C/c1ccc2ccccc2n1` was 0%; that for `OC(Cc1ccc2ccccc2n1)c1ccccc1` (centres undefined) was 16%.
Still for that read-out and setting: the value for `CC1OC1c1ccc2ccccc2n1` (centres undefined) was 0%.
`O=[N+]([O-])/C=C/c1ccc2ccccc2n1`: the inhibition at 50 µM in the experiment listed under Homo sapiens is 0%.
In turn, `CCCCCCCCCCCCCCc1ccc2ccccc2n1` registered an inhibition at 10 µM in experiment [1] of 12%.
`CC(O)Cc1ccc2cccc(O)c2n1` (centres undefined) had an inhibition at 10 µM in experiment [1] of 85%.
Same read-out and setting: the value for `C=Cc1ccc2ccccc2n1` was 87%.
The same measure, in the same setting: the value for `CCCc1ccc2ccccc2n1` was 0%.
The compound `O=C/C=C/c1ccc2ccccc2n1` yielded an inhibition at 10 µM in experiment [1] of 34%.
Same read-out and setting: the value for `c1ccc(C2OC2c2ccc3ccccc3n2)cc1` (centres undefined) was 0%; that for `CCCCCc1ccc2ccccc2n1` was 0%.
In turn, `C(=C\c1ccc2ccccc2n1)/c1ccc2ccccc2n1` showed an inhibition at 50 µM in the experiment filed under Homo sapiens of 0%.

Values taken from ChEMBL document CHEMBL1136625, “Substituted quinolines induce inhibition of proliferation of HTLV-1 infected cells” (2003).
